The results in this text go back to patent US12577228B2, “Dihydrocyclopenta-isoquinoline-sulfonamide derivatives compounds” (UCB Biopharma SRL, priority 2019, dated 2026).

T1 sequence (P01854 104-427 N146Q/N252Q): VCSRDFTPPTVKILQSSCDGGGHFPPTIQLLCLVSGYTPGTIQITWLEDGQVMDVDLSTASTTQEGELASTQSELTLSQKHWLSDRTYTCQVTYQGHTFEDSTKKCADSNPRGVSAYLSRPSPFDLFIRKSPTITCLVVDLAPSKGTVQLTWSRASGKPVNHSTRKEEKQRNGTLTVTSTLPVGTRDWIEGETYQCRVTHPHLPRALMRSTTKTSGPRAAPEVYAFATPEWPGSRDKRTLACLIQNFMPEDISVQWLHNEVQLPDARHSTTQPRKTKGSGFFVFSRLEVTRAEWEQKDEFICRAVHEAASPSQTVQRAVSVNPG
T1 sequence (P12319 26-201 Y156A partner): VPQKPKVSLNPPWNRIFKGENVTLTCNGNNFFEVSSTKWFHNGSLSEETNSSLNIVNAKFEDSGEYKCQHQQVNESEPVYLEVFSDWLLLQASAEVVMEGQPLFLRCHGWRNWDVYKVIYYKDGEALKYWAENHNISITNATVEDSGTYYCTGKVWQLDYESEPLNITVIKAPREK

This experiment concerns the target T1, IgE-Tb / soluble IgE receptor FcεRIα with a Y131A mutation (Homo sapiens, UniProt P01854, N146Q/N252Q).
T1 construct: fused on or other part: Terbium chelate (LanthaScreen amine-reactive) on IgE-Fc; Alexa Fluor 488 hydrazide on the oxidised glycans of sFcεRIα; Both are labels and no part of the key
Put plainly: in vitro FRET assay: binding of IgE-Tb to receptor FcεRIα-Y131A-AF488 and its inhibition by compounds. Conditions: 5 nM IgE-Tb, 25 nM FcεRIα-Y131A-AF488, 2 hours at room temperature; read-out: FRET IC50 range.
As a reminder, the IC50 is the concentration that inhibits the measured activity by half. Consider `CC(C)(F)CNS(=O)(=O)c1c2c(cc3cnc(C4CC4)cc13)C[C@@H](NC(=O)c1c[nH]c3ccc(F)cc13)C2` [Example 131, N-[(7R)-3-cyclopropyl-5-[(2-fluoro-2-methylpropyl)sulfamoyl]-7,8-dihydro-6H-cyclopenta[g]isoquinolin-7-yl]-5-fluoro-1H-indole-3-carboxamide], for which the IC50 lay in the range of 10 to 50 nM.

Turning to `CC(C)(F)CNS(=O)(=O)c1c2c(cc3c(F)nc(C4CC4)cc13)CC(Nc1ccc(C(N)=O)nc1)C2` (centres unmarked) [Example 23, 5-[[3-cyclopropyl-1-fluoro-5-[(2-fluoro-2-methyl-propyl)sulfamoyl]-7,8-dihydro-6H-cyclopenta[g]isoquinolin-7-yl]amino]pyridine-2-carboxamide], the half-inhibitory concentration (IC50) lay within 10 to 50 nM.

For the compound `CC(C)(F)CNS(=O)(=O)c1c2c(cc3cnc(C4CC4)cc13)C[C@@H](Nc1ccc(S(N)(=O)=O)nc1)C2` [Example 61, (7R)-3-cyclopropyl-N-(2-fluoro-2-methylpropyl)-7-[(6-sulfamoylpyridin-3-yl)amino]-7,8-dihydro-6H-cyclopenta[g]isoquinoline-5-sulfonamide], the IC50 lay in the range of 10 to 50 nM.

As for `CC(C)CNS(=O)(=O)c1c2c(cc3cnc(C4CC4)cc13)C(O)CC2` (centres unmarked) [Example 47, 3-cyclopropyl-8-hydroxy-N-(2-methylpropyl)-7,8-dihydro-6H-cyclopenta[g]isoquinoline-5-sulfonamide], the IC50 was 100 to 2000 nM.

Consider `CC(C)(F)CNS(=O)(=O)c1c2c(cc3cnc(C4CC4)cc13)CC(Nc1ccc(S(C)(=N)=O)nc1)C2` (centres unmarked) [Example 35, 3-cyclopropyl-N-(2-fluoro-2-methylpropyl)-7-[[6-(methylsulfonimidoyl)pyridin-3-yl]amino]-7,8-dihydro-6H-cyclopenta[g]isoquinoline-5-sulfonamide], for which the IC50 was in the range of 10 to 50 nM.

In the case of `CC(C)(F)CNS(=O)(=O)c1c2c(cc3cnc(C4CC4)cc13)C[C@@H](Nc1ccc(C(C)(C)O)nc1)C2` [Example 39, (7R)-3-cyclopropyl-N-(2-fluoro-2-methylpropyl)-7-[[6-(2-hydroxypropan-2-yl)pyridin-3-yl]amino]-7,8-dihydro-6H-cyclopenta[g]isoquinoline-5-sulfonamide], the IC50 is 10 to 50 nM.

Consider `Cn1ccc(-c2ccc(N[C@@H]3Cc4cc5cnc(C6CC6)cc5c(S(=O)(=O)NCC(C)(C)F)c4C3)cn2)n1` [Example 108, (7R)-3-cyclopropyl-N-(2-fluoro-2-methylpropyl)-7-[[6-(1-methylpyrazol-3-yl)pyridin-3-yl]amino]-7,8-dihydro-6H-cyclopenta[g]isoquinoline-5-sulfonamide], for which the IC50 is 10 to 50 nM.

As to `CC(=O)Nc1cncc(NC2Cc3cc4cnc(C5CC5)cc4c(S(=O)(=O)NCC(C)(C)F)c3C2)c1` (centres unmarked) [Example 121, N-[5-[[3-cyclopropyl-5-[(2-fluoro-2-methylpropyl)sulfamoyl]-7,8-dihydro-6H-cyclopenta[g]isoquinolin-7-yl]amino]pyridin-3-yl]acetamide], the IC50 lay in the range of 10 to 50 nM.

Consider `Cc1nnc(-c2ccc(N[C@@H]3Cc4cc5cnc(C6CC6)cc5c(S(=O)(=O)NCC(C)(C)F)c4C3)cn2)o1` [Example 37, (7R)-3-cyclopropyl-N-(2-fluoro-2-methylpropyl)-7-[[6-(5-methyl-1,3,4-oxadiazol-2-yl)pyridin-3-yl]amino]-7,8-dihydro-6H-cyclopenta[g]isoquinoline-5-sulfonamide], for which the 50% inhibitory concentration (IC50) was 1 to 10 nM.

On to `NC(=O)c1ccc(N[C@@H]2Cc3cc4cnc(C5CC5)cc4c(S(=O)(=O)NC4CC(F)(F)C4)c3C2)nn1` [Example 94, 6-[[(7R)-3-cyclopropyl-5-[(3,3-difluorocyclobutyl)sulfamoyl]-7,8-dihydro-6H-cyclopenta[g]isoquinolin-7-yl]amino]pyridazine-3-carboxamide], for which the IC50 was in the range of 10 to 50 nM.

For `CC(C)(F)CNS(=O)(=O)c1c2c(cc3cnc(C4CC4)cc13)C[C@@H](Nc1ccc(C(F)F)nc1)C2` [Example 118, (7R)-3-cyclopropyl-7-[[6-(difluoromethyl)pyridin-3-yl]amino]-N-(2-fluoro-2-methylpropyl)-7,8-dihydro-6H-cyclopenta[g]isoquinoline-5-sulfonamide], the IC50 lay in the range of 10 to 50 nM.
